Consider seven compounds from patent US4283329A, “Pharmacologically active peptides” (Eli Lilly and Company, priority 1979, dated 1981).

Where a SMILES comes first, the peptide text is derived from it. [ ]: non-standard residue; d: D form. Phe(4-F) = N[C@@H](Cc1ccc(F)cc1)C(=O)O; NMeM = CN[C@@H](CCSC)C(=O)O

Test system in the first assay: not given
Experiment: not given
Particulars: administered parenterally; cited from earlier work.
For the compound “H-Tyr-Gly-Gly-Phe-Met-OH [methionine enkephalin]”, the analgesic activity result is reported as “practically devoid of any useful analgesic activity”.

As to “H-Tyr-Gly-Gly-Phe-Leu-OH [leucine enkephalin]”, the analgesic activity entry is reported as “practically devoid of any useful analgesic activity”.

In another assay the test system is mouse. Briefly: mouse hot plate test (analgesic activity). Type of assay: in vivo. Particulars: subcutaneous, hot plate 52° C., 15 minutes after administration, latency until jump. The method, then:
In this test, a mouse is placed inside on upright acrylic cylinder comprising, as its base, a hot plate surface which is maintained at 52° C. The mouse is given, orally or by subcutaneous injection, a predetermined amount of test compound dissolved or suspended in a suitable carrier, and, 15 minutes after administration of the test compound, the mouse is placed on the hot plate surface. The latency in seconds until the mouse jumps from the hot plate surface is measured. […] This must occur in a dose range which produces no motor incoordination or incapacitation. The following Table records the ED50 results obtained from this test.
In general terms: In hot-plate and tail-flick tests a longer latency is read as antinociception.
Regarding `C[C@@H](NC(=O)[C@@H](N)Cc1ccc(O)cc1)C(=O)NCC(=O)N[C@@H](Cc1ccc(F)cc1)C(=O)N[C@@H](C(N)=O)c1ccccc1` [Example 3 D-Pgl, L-Tyrosyl-D-alanyl-glycyl-L-p-fluorophenylalanyl-D-phenylglycinamide], the “Analgesic Activity, Hot Plate Test, ED50” value came out at 0.103 mg/kg.

With `COc1ccc([C@H](NC(=O)[C@H](Cc2ccc(F)cc2)NC(=O)CNC(=O)[C@@H](C)NC(=O)[C@@H](N)Cc2ccc(O)cc2)C(N)=O)cc1` [Example 2, L-Tyrosyl-D-alanyl-glycyl-L-p-fluorophenylalanyl-L-p-methoxyphenylglycinamide], the “Analgesic Activity, Hot Plate Test, ED50” value came to 1.04 mg/kg.

As for `CSCC[C@@H](C(N)=O)N(C)C(=O)[C@H](Cc1ccc(F)cc1)NC(=O)CNC(=O)[C@@H](C)NC(=O)[C@@H](N)Cc1ccc(O)cc1` [Example 1, L-Tyrosyl-D-alanyl glycyl-L-p-fluorophenylalanyl-L-(N^α -methyl)methionin amide], the “Analgesic Activity, Hot Plate Test, ED50” value is 0.023 mg/kg.

On to `C[C@@H](NC(=O)[C@@H](N)Cc1ccc(O)cc1)C(=O)NCC(=O)N[C@@H](Cc1ccc(F)cc1)C(=O)N[C@H](C(N)=O)c1ccccc1` [Example 3 L-Pgl, L-Tyrosyl-D-alanyl-glycyl-L-p-fluorophenylalanyl-L-phenylglycinamide], for which the “Analgesic Activity, Hot Plate Test, ED50” value was found to be 0.063 mg/kg.

For `CSCC[C@@H](C(N)=O)N(C)C(=O)[C@H](Cc1ccc(F)cc1)NC(=O)CNC(=O)[C@H](NC(=O)[C@@H](N)Cc1ccc(O)cc1)[C@H](C)O` [Example 4, L-Tyrosyl-D-threonylglycyl-L-p-fluorophenylalanyl-L-(N^α -methyl)methioninamide] (H-Y[dT]G[Phe(4-F)][NMeM]-NH2), the “Analgesic Activity, Hot Plate Test, ED50” value was 0.088 mg/kg.
